One assay deals with T1, Aurora A (Homo sapiens, UniProt O14965).
T1 construct: cell lysates from Jurkat cells (ATCC TIB-152) used; endogenous in cells; host or cells: Jurkat cells (ATCC TIB-152), treated with pervanadate
T1 sequence (O14965 1-403): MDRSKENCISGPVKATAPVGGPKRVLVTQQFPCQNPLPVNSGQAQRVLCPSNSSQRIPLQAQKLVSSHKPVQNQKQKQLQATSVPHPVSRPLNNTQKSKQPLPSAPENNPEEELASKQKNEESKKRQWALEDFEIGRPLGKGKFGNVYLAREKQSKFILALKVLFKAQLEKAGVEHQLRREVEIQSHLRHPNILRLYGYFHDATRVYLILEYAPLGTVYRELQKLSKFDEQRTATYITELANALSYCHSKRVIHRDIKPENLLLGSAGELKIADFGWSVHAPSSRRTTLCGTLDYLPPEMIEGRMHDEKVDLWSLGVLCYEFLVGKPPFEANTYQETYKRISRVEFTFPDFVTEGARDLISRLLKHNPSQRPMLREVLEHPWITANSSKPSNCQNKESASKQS
The experiment in a line: Kinobeads assay, Aurora A. Format: binding. The conditions noted are these: for IC50: lysate of pervanadate-treated Jurkat cells, read-out: Inhibition values (IC50) Aur A.

In the next assay the target is T2, JAK2 (Homo sapiens, UniProt O60674).
T2 construct: endogenous in cells; host or cells: mixed Molt4/Ramos lysate (1:2)
The assay can be described thus: Kinobeads assay, JAK2. Format: binding. The conditions noted are these: mixed Molt4/Ramos lysate, read-out: Inhibition values (IC50) JAK2. In short, it runs like this:
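IC50 values come from dose-response curves of JAK2/JAK3 captured on immobilized aminopyrido-pyrimidine beads, quantified by antibody dot blot with infrared read-out. Compounds (1:3 series, 9 steps, from 5 mM DMSO stock) competed for 3 h in the cold with mixed Molt4/Ramos lysate (1:2, 10 mg/mL protein).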

As usually defined, the IC50 is the concentration needed to halve the response being measured.

T2 sequence (O60674 whole entry): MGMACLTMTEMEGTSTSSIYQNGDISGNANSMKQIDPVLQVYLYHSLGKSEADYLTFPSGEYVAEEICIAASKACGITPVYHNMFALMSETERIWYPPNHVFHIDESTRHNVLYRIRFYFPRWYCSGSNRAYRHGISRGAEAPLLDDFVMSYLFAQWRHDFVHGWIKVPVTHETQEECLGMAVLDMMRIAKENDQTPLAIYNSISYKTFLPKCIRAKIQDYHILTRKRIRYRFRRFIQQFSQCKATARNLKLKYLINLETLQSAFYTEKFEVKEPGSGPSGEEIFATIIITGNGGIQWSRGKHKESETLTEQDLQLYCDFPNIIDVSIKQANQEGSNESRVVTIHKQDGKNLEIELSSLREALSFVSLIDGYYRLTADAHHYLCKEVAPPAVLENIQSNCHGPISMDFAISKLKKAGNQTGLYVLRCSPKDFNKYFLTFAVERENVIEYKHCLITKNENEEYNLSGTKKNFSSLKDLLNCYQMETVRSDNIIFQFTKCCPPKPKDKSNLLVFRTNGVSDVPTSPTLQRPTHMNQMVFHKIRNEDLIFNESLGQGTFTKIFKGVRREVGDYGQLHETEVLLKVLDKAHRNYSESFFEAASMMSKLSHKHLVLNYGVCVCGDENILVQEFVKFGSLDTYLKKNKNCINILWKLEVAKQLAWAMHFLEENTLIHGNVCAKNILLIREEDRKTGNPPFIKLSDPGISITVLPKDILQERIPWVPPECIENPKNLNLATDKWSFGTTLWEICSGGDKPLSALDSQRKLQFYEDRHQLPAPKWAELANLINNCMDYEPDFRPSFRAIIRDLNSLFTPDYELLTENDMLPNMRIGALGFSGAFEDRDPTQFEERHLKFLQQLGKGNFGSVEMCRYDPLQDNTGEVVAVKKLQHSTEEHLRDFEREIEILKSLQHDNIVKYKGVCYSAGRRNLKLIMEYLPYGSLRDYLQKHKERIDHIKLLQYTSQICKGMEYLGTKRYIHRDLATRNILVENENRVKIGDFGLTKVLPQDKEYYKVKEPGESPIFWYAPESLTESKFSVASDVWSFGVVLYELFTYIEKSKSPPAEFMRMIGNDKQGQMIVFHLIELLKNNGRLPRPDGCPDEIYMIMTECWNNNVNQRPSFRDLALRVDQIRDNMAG

As for `Cn1cc(Nc2ncc3cnn(Cc4cccc(-c5cnn(CCO)c5)c4)c3n2)cn1` [Example 121, 2-(4-(3-((6-((1-methyl-1H-pyrazol-4-yl)amino)-1H-pyrazolo[3,4-d]pyrimidin-1-yl)methyl)phenyl)-1H-pyrazol-1-yl)ethanol], the “JAK3/AurA Fold Selectivity” value at Aurora A is 10-50 Fold. The IC50 was in the range of 0.1 to 1 µM at Aurora A and 1 to 10 µM at JAK2.
For `Cn1cc(-c2cccc(Cn3ncc4cnc(Nc5cnn(CCO)c5)nc43)c2)cn1` [Example 122, 2-(4-((1-(3-(1-methyl-1H-pyrazol-4-yl)benzyl)-1H-pyrazolo[3,4-d]pyrimidin-6-yl)amino)-1H-pyrazol-1-yl)ethanol], the “JAK3/AurA Fold Selectivity” value on Aurora A is given as 10-50 Fold. Also, the half-inhibitory concentration (IC50) on Aurora A fell in the range of 0.1 to 1 µM; at JAK2, 1 to 10 µM.
On the same counts, the results for `Cn1cc(Nc2ncc3cnn(Cc4cccc(-c5cnn(C)c5)c4F)c3n2)cn1` [Example 123, 1-(2-fluoro-3-(1-methyl-1H-pyrazol-4-yl)benzyl)-N-(1-methyl-1H-pyrazol-4-yl)-1H-pyrazolo[3,4-d]pyrimidin-6-amine] are 10-50 Fold, 1 to 10 µM and 1 to 10 µM.
As to `Cn1cc(-c2cccc(Cn3ncc4cnc(Nc5cnn(CCO)c5)nc43)c2F)cn1` [Example 124, 2-(4-((1-(2-fluoro-3-(1-methyl-1H-pyrazol-4-yl)benzyl)-1H-pyrazolo[3,4-d]pyrimidin-6-yl)amino)-1H-pyrazol-1-yl)ethanol], the “JAK3/AurA Fold Selectivity” value at Aurora A was 10-50 Fold. The IC50 at Aurora A lay in the range of 0.1 to 1 µM; on JAK2, 1 to 10 µM.
`Cn1cc(Nc2ncc3cnn(Cc4cc(F)cc(-c5cnn(C)c5)c4)c3n2)cn1` [Example 125, 1-(3-fluoro-5-(1-methyl-1H-pyrazol-4-yl)benzyl)-N-(1-methyl-1H-pyrazol-4-yl)-1H-pyrazolo[3,4-d]pyrimidin-6-amine]: on Aurora A, the “JAK3/AurA Fold Selectivity” value is 10-50 Fold and the IC50 was in the range of 1 to 10 µM. For the same molecule, the IC50 on JAK2 is 0.1 to 1 µM.
Take `Cn1cc(Nc2ncc3cnn(Cc4cc(-c5cnn(C)c5)cc(F)c4F)c3n2)cn1` [Example 126, 1-(2,3-difluoro-5-(1-methyl-1H-pyrazol-4-yl)benzyl)-N-(1-methyl-1H-pyrazol-4-yl)-1H-pyrazolo[3,4-d]pyrimidin-6-amine]: at Aurora A, the “JAK3/AurA Fold Selectivity” value is >50 Fold and the IC50 lay within 1 to 10 µM. For the same molecule, on JAK2, the IC50 is ≥ 10 µM.
For `Cn1cc(-c2cc(F)c(F)c(Cn3ncc4cnc(Nc5cnn(CCO)c5)nc43)c2)cn1` [Example 127, 2-(4-((1-(2,3-difluoro-5-(1-methyl-1H-pyrazol-4-yl)benzyl)-1H-pyrazolo[3,4-d]pyrimidin-6-yl)amino)-1H-pyrazol-1-yl)ethanol], on Aurora A, the “JAK3/AurA Fold Selectivity” value is recorded as 10-50 Fold and the IC50 was 0.1 to 1 µM. The IC50 on JAK2 fell in the range of 1 to 10 µM.

The record behind these values is US9040545B2, “Heterocyclyl pyrazolopyrimidine analogues as selective JAK inhibitors” (Cellzome Limited, priority 2010, dated 2015).
